Laboratory results taken from ChEMBL document CHEMBL1201862, “PubChem BioAssay data set” (2004).
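Dose response: 5 concentrations. Exposure: 48 h. Format: 96-well plates. Endpoint: linear interpolation; highest concentration if not reached. The concentration for 50% growth inhibition is given as GI50.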 Active and inactive are the calls of the source. Rule as the data show it: active = GI50 up to about 1.1 µM and inactive = higher.

Key:
Experiment in all cases: growth of human tumour cells (NCI), 48 h
MDA-MB-231 = tested on: MDA-MB-231
OVCAR-4 = tested on: OVCAR-4
UACC-62 = tested on: UACC-62
ACHN = tested on: ACHN
RPMI-8226 = tested on: RPMI-8226
UACC-257 = tested on: UACC-257
TK-10 = tested on: TK-10
EKVX = tested on: EKVX
NCI/ADR-RES = tested on: NCI/ADR-RES
Hs-578T = tested on: Hs-578T
MDA-MB-435 = tested on: MDA-MB-435
K562 = tested on: K562
SNB-19 = tested on: SNB-19
HCT-116 = tested on: HCT-116
HOP-62 = tested on: HOP-62
MOLT-4 = tested on: MOLT-4
A549 = tested on: A549
OVCAR-8 = tested on: OVCAR-8
MDA-N = tested on: MDA-N
SR = tested on: SR

SMILES | GI50 (MDA-MB-231) | GI50 (OVCAR-4) | GI50 (UACC-62) | GI50 (ACHN) | GI50 (RPMI-8226) | GI50 (UACC-257) | GI50 (TK-10) | GI50 (EKVX) | GI50 (NCI/ADR-RES) | GI50 (Hs-578T) | GI50 (MDA-MB-435) | GI50 (K562) | GI50 (SNB-19) | GI50 (HCT-116) | GI50 (HOP-62) | GI50 (MOLT-4) | GI50 (A549) | GI50 (OVCAR-8) | GI50 (MDA-N) | GI50 (SR)
Cc1ccsc1/C=N/Nc1ncccn1 | > 100 µM (inactive) | > 100 µM (inactive) | > 100 µM (inactive) | > 100 µM (inactive) | > 100 µM (inactive) | > 100 µM (inactive) | > 100 µM (inactive) | > 100 µM (inactive) | > 100 µM (inactive) | > 100 µM (inactive) | > 100 µM (inactive) | > 100 µM (inactive) | > 100 µM (inactive) | > 100 µM (inactive) | > 100 µM (inactive) | > 100 µM (inactive) | > 100 µM (inactive) | > 100 µM (inactive) | > 100 µM (inactive) | –
O=S(=O)(c1ccccc1)[C@@H]1[C@H]2C=C[C@](CS)(O2)[C@H]1S(=O)(=O)c1ccccc1 | > 100 µM (inactive) | 42.1 µM (inactive) | > 100 µM (inactive) | 76.9 µM (inactive) | – | > 100 µM (inactive) | > 100 µM (inactive) | 78.9 µM (inactive) | 53.5 µM (inactive) | > 100 µM (inactive) | 46.2 µM (inactive) | 14.4 µM (inactive) | > 100 µM (inactive) | 13.3 µM (inactive) | > 100 µM (inactive) | 16.5 µM (inactive) | > 100 µM (inactive) | 50.1 µM (inactive) | 82.8 µM (inactive) | 25.6 µM (inactive)
O=c1cc(-c2cccnc2)[nH]c2cc3c(cc12)OCO3 | 29.6 µM (inactive) | > 73.3 µM (inactive) | 3.3 µM (inactive) | 13.6 µM (inactive) | 34 µM (inactive) | > 26.5 µM (inactive) | 41.6 µM (inactive) | – | 14.8 µM (inactive) | 11.3 µM (inactive) | 1.84 µM (inactive) | 5.07 µM (inactive) | 13 µM (inactive) | 4.8 µM (inactive) | 7.5 µM (inactive) | 17.1 µM (inactive) | 19.2 µM (inactive) | 12.9 µM (inactive) | 2.29 µM (inactive) | –
CCCCCCCCC/C=C1\CC(CO)(COC(=O)C2CCCCC2)OC1=O (stereo not given) | 19.7 µM (inactive) | 22.8 µM (inactive) | 21.5 µM (inactive) | 20 µM (inactive) | – | 27.4 µM (inactive) | 21.3 µM (inactive) | 17.9 µM (inactive) | 17 µM (inactive) | 16.4 µM (inactive) | 13.5 µM (inactive) | 11 µM (inactive) | 21.8 µM (inactive) | 23 µM (inactive) | 13.4 µM (inactive) | 21.7 µM (inactive) | 19.4 µM (inactive) | 15.8 µM (inactive) | 16.7 µM (inactive) | 32.4 µM (inactive)
CCN(CC)CCCC(C)Nc1cc(/C=C/c2ccc(Cl)cc2)nc2cc(N(C)C)ccc12 (stereo not given) | 1.22 µM (inactive) | – | 2.52 µM (inactive) | 2.11 µM (inactive) | – | – | 1.91 µM (inactive) | 1.73 µM (inactive) | 2.19 µM (inactive) | 2.37 µM (inactive) | 1.67 µM (inactive) | 0.272 µM (active) | 1.82 µM (inactive) | 1.24 µM (inactive) | 1.89 µM (inactive) | 1.19 µM (inactive) | 2.25 µM (inactive) | 1.86 µM (inactive) | 1.47 µM (inactive) | 1.25 µM (inactive)
COC(=O)C(CBr)CBr | 2.12 µM (inactive) | 4.03 µM (inactive) | 9.42 µM (inactive) | 3.7 µM (inactive) | 0.757 µM (active) | 5.58 µM (inactive) | 4.79 µM (inactive) | 9.55 µM (inactive) | 3.1 µM (inactive) | 4.65 µM (inactive) | 3.33 µM (inactive) | 1.57 µM (inactive) | 8.51 µM (inactive) | 2.96 µM (inactive) | 22.5 µM (inactive) | 1.69 µM (inactive) | 18.2 µM (inactive) | 3.41 µM (inactive) | 3.48 µM (inactive) | –
COc1ccc2nc3cc([N+](=O)[O-])ccc3c(Nc3ccc(S(=O)(=O)NC(C)=O)cc3)c2c1 | 50 µM (inactive) | > 100 µM (inactive) | 73.3 µM (inactive) | 88.1 µM (inactive) | 22.1 µM (inactive) | > 100 µM (inactive) | 53.2 µM (inactive) | 85.3 µM (inactive) | – | 85.9 µM (inactive) | 76.4 µM (inactive) | 37.2 µM (inactive) | > 100 µM (inactive) | 44 µM (inactive) | > 100 µM (inactive) | 29.4 µM (inactive) | > 100 µM (inactive) | – | > 100 µM (inactive) | 11.5 µM (inactive)
O=c1ccn(C2OC(CN(O)CCC3C(CO)OC(n4ccc(=O)[nH]c4=O)C3O)C(O)C2O)c(=O)[nH]1 (stereo not given) | > 100 µM (inactive) | > 100 µM (inactive) | > 100 µM (inactive) | > 100 µM (inactive) | > 100 µM (inactive) | > 100 µM (inactive) | > 100 µM (inactive) | > 100 µM (inactive) | > 100 µM (inactive) | > 100 µM (inactive) | > 100 µM (inactive) | > 100 µM (inactive) | > 100 µM (inactive) | > 100 µM (inactive) | > 100 µM (inactive) | > 100 µM (inactive) | > 100 µM (inactive) | > 100 µM (inactive) | > 100 µM (inactive) | –
COc1ccc2c(c1)C(N)=C(Cc1ccncc1)C2=O | > 100 µM (inactive) | 98.4 µM (inactive) | 81.3 µM (inactive) | > 100 µM (inactive) | > 100 µM (inactive) | > 100 µM (inactive) | > 100 µM (inactive) | 53.5 µM (inactive) | > 100 µM (inactive) | > 100 µM (inactive) | > 100 µM (inactive) | > 100 µM (inactive) | > 100 µM (inactive) | > 100 µM (inactive) | > 100 µM (inactive) | 63.1 µM (inactive) | > 100 µM (inactive) | > 100 µM (inactive) | > 100 µM (inactive) | –
COC(=O)C1CCCCCCCCCCC12SCCCS2 (stereo not given) | 21.7 µM (inactive) | 16.5 µM (inactive) | 25.6 µM (inactive) | 19 µM (inactive) | – | 17.5 µM (inactive) | 20.1 µM (inactive) | 19.4 µM (inactive) | 20.7 µM (inactive) | 30.4 µM (inactive) | 16.4 µM (inactive) | 24.5 µM (inactive) | 18.2 µM (inactive) | 16.3 µM (inactive) | 21.2 µM (inactive) | 15.8 µM (inactive) | 17.4 µM (inactive) | 23.4 µM (inactive) | 30.8 µM (inactive) | 11.5 µM (inactive)
O=C(NCCC1CN(C(=O)OCc2ccccc2)c2ccccc21)OCc1ccccc1 (stereo not given) | > 100 µM (inactive) | > 100 µM (inactive) | > 100 µM (inactive) | > 100 µM (inactive) | > 100 µM (inactive) | > 100 µM (inactive) | > 100 µM (inactive) | 64.6 µM (inactive) | > 100 µM (inactive) | > 100 µM (inactive) | > 100 µM (inactive) | > 100 µM (inactive) | > 100 µM (inactive) | 71.9 µM (inactive) | > 100 µM (inactive) | > 100 µM (inactive) | 85.3 µM (inactive) | > 100 µM (inactive) | > 100 µM (inactive) | –
